Measurements taken from ChEMBL document CHEMBL5465560, “Selectivity Literature for EUbOPEN Chemogenomic Library” (2024).

Columns and labels:
[1] = target: T1, Serine/threonine-protein kinase 17B (Homo sapiens) (UniProt O94768); assay: Selectivity interaction (KinomeScan (DiscoverX)) EUB0000229b STK17B; settings: at 10 µM
T1 sequence (whole entry): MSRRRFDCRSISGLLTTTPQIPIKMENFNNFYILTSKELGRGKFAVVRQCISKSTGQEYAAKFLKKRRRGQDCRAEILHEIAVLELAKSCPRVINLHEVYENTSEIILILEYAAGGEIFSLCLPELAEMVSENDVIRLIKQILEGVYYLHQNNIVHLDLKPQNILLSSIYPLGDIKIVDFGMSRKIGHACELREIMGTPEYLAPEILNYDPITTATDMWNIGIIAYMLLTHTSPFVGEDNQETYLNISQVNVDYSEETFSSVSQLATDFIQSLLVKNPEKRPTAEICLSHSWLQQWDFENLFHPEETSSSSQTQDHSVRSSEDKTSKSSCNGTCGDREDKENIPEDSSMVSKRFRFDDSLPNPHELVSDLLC

[2] = target: Tyrosine-protein kinase CSK (Homo sapiens) (UniProt P41240); assay: Selectivity interaction (KinomeScan (DiscoverX)) EUB0000229b CSK; settings: at 10 µM
Chain of Tyrosine-protein kinase CSK (Homo sapiens) (P41240 2-450 limits assumed): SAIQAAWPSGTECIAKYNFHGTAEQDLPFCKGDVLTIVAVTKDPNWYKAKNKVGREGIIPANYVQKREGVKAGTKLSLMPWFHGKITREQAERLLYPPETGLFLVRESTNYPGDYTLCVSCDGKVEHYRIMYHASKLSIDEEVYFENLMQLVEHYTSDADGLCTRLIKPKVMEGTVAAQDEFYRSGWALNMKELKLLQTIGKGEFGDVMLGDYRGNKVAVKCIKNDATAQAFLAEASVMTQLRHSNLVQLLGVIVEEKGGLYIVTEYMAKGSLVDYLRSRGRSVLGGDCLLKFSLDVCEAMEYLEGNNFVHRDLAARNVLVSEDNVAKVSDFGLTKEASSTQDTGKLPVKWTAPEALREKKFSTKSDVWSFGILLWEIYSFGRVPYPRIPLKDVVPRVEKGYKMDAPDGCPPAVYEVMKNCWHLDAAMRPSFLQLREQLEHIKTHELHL

[3] = target: Glycogen synthase kinase-3 alpha (Homo sapiens, UniProt P49840); assay: Selectivity interaction (KinomeScan (DiscoverX)) EUB0001079a GSK3A; settings: at 1 µM
Chain of Glycogen synthase kinase-3 alpha (P49840 2-483 limits assumed): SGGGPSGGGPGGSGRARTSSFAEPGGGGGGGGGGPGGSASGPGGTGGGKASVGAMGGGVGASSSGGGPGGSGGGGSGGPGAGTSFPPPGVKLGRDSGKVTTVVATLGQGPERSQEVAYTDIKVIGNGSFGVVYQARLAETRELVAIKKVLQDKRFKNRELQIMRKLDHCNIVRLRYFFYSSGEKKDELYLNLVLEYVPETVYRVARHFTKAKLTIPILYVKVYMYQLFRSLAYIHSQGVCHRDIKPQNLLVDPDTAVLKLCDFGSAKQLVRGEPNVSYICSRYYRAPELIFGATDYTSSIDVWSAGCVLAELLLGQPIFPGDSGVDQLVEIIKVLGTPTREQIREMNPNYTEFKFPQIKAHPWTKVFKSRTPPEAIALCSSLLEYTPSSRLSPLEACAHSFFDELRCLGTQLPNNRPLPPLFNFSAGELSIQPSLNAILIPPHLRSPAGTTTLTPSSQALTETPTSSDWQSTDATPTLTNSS

[4] = target: Phosphatidylinositol 4-kinase alpha (Homo sapiens, UniProt P42356); assay: Selectivity interaction (Kinase panel (radiometric assay)) EUB0000877a PI4KA
Chain of Phosphatidylinositol 4-kinase alpha (P42356 whole entry): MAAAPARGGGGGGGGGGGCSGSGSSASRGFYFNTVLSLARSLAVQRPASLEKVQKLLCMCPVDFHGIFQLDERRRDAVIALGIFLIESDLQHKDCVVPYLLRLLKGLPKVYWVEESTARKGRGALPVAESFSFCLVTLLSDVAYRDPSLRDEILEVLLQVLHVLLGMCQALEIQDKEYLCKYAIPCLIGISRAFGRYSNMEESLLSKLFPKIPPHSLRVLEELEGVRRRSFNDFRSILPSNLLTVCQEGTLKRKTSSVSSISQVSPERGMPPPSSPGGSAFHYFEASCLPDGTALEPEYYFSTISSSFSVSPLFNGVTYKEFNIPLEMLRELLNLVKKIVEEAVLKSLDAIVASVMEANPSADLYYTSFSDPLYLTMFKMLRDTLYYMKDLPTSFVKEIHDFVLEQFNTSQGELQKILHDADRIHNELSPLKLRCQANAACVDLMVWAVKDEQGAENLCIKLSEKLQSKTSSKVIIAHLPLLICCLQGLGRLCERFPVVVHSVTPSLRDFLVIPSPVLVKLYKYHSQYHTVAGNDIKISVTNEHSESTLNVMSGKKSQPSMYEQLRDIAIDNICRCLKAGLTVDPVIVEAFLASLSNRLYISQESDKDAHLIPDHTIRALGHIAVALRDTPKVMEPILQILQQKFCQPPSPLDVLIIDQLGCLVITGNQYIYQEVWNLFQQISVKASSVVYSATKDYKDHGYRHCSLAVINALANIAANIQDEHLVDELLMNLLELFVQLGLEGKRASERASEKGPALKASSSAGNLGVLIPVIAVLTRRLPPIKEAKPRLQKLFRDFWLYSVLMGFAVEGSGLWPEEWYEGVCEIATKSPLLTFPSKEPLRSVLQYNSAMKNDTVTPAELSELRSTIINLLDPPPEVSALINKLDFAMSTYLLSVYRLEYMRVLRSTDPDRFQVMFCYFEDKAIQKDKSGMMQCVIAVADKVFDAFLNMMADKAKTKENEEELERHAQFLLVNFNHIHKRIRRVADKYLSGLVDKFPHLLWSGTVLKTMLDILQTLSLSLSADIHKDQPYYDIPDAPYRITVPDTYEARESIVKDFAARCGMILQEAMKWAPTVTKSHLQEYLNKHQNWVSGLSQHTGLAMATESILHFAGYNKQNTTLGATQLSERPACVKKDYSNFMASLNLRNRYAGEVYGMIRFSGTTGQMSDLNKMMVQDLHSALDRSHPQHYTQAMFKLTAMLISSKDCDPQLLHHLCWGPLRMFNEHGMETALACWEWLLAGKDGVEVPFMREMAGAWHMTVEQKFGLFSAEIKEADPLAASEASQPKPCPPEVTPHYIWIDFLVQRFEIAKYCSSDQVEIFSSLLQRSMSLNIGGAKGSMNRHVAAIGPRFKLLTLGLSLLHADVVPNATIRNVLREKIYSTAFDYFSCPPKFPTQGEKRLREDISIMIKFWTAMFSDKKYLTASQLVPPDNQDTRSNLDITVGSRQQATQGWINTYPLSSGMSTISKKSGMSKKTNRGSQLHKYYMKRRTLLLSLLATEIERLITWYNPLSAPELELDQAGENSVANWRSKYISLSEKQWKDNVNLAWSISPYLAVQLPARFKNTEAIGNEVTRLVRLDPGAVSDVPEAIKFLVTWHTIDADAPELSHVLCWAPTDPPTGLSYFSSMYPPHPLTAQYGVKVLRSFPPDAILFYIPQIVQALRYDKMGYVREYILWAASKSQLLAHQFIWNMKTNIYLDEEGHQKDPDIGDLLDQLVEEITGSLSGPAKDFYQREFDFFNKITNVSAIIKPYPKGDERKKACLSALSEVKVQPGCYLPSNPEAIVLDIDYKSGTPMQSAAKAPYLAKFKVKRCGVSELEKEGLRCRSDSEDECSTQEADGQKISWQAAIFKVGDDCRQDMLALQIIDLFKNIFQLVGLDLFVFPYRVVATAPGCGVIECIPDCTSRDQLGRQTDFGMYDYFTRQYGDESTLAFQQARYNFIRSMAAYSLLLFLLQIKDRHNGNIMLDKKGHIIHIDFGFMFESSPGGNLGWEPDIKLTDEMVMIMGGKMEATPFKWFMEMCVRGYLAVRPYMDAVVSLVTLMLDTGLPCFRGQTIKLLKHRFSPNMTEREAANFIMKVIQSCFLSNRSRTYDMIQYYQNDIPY

Aurora kinase A = Aurora kinase A (Homo sapiens, UniProt O14965); assay: Selectivity interaction (Radiometric kinase assay (using 10 uM ATP)) EUB0000601a STK6
Chain of Aurora kinase A (O14965 whole entry): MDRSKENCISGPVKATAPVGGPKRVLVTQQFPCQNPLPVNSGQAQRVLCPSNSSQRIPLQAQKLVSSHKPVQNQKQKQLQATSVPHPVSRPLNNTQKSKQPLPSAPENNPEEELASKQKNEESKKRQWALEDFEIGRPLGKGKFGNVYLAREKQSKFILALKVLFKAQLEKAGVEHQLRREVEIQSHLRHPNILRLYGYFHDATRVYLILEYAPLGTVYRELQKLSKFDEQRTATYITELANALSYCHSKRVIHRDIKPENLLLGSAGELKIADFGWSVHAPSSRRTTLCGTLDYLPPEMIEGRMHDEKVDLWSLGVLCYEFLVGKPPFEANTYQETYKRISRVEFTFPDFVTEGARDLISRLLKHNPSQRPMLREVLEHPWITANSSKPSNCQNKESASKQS

[5] = target: T2, Tyrosine-protein kinase Tec (Homo sapiens) (UniProt P42680); assay: Selectivity interaction (LanthaScreen Eu Kinase Binding Assay) EUB0001632a TEC; settings: at 10 µM
T2 sequence (whole entry): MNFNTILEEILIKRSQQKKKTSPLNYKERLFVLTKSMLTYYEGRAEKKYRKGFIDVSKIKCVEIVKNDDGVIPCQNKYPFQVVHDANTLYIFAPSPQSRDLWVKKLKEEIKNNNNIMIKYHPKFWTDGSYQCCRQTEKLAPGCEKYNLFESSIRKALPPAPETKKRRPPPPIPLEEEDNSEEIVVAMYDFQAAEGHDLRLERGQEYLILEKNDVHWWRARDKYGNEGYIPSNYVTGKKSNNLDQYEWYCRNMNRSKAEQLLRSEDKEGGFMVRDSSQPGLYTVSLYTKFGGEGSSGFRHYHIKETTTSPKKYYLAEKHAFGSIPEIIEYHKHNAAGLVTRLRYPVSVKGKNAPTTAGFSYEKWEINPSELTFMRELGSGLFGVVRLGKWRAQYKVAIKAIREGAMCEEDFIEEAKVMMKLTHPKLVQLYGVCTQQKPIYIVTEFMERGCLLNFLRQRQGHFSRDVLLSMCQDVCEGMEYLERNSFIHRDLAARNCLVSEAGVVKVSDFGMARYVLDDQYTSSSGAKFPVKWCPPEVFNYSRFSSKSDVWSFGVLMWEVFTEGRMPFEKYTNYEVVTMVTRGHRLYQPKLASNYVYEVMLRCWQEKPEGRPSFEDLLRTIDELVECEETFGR

[6] = target: PAS domain-containing serine/threonine-protein kinase (Homo sapiens) (UniProt Q96RG2); assay: Selectivity interaction (Kinase panel (Z-LYTE Assay)) EUB0001632a PASK; settings: at 10 µM
Chain of PAS domain-containing serine/threonine-protein kinase (Homo sapiens) (Q96RG2 whole entry, the tested form may be a part): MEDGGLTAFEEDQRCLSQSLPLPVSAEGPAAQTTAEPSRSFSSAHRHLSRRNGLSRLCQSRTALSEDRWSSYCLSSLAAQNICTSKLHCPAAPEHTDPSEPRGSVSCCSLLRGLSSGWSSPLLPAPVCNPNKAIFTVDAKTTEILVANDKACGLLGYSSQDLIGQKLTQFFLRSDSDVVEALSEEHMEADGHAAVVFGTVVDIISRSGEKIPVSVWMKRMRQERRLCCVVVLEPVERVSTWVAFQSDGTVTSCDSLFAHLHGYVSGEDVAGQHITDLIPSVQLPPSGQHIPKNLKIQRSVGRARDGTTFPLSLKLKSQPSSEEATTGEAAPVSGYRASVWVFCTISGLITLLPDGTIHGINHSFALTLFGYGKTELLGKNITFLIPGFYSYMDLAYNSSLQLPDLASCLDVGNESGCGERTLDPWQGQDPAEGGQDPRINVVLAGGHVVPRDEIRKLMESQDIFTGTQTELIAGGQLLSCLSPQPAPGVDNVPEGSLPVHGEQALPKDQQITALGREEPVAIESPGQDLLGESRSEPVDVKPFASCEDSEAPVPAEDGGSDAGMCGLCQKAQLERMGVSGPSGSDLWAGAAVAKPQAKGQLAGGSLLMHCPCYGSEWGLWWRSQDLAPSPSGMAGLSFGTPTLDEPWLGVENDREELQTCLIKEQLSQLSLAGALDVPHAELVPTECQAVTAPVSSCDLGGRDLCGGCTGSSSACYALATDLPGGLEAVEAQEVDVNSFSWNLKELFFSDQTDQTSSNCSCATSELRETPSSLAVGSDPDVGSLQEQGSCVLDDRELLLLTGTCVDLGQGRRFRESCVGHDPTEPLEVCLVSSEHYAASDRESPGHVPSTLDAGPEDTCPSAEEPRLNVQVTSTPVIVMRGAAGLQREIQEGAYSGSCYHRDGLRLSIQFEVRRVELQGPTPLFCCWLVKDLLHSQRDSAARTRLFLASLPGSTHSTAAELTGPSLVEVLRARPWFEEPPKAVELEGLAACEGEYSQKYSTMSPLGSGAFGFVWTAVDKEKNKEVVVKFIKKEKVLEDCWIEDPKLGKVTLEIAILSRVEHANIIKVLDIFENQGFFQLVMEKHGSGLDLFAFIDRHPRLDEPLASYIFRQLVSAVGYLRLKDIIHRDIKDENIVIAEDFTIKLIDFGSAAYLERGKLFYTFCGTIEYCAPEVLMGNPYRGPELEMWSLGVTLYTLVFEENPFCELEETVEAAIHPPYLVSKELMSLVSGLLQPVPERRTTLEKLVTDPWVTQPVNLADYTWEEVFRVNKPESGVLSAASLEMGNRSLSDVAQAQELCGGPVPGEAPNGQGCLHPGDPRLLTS

[7] = target: T3, Inhibitor of nuclear factor kappa-B kinase subunit alpha (Homo sapiens) (UniProt O15111); assay: Selectivity interaction (ActivX KiNativ screen (kinase selectivity in THP-1 cell lysates)) EUB0000639a CHUK; format: subcellular; settings: lysate
T3 sequence (whole entry): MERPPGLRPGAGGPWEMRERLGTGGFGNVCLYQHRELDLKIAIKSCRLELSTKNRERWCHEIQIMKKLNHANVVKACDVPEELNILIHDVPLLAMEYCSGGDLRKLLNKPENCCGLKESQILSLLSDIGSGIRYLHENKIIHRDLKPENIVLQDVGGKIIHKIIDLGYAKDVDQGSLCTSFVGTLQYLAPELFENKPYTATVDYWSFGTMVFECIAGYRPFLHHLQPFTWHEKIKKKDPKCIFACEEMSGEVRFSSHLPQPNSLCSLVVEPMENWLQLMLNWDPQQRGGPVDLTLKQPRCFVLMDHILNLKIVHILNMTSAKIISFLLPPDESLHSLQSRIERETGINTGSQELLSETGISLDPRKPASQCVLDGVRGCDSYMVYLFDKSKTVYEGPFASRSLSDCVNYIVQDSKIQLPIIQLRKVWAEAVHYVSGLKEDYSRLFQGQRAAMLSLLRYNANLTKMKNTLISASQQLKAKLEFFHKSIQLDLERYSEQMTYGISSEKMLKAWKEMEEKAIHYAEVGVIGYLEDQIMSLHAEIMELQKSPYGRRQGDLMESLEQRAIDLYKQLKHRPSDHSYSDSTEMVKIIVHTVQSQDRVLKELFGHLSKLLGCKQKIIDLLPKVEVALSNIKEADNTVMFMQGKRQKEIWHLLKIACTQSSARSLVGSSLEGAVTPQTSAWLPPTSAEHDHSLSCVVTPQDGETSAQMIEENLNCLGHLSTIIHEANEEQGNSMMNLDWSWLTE

[8] = target: T4, Protein kinase C epsilon type (Homo sapiens) (UniProt Q02156); assay: Selectivity interaction (KinomeScan (DiscoverX)) EUB0000618a PRKCE; settings: at 10 µM
T4 sequence (whole entry): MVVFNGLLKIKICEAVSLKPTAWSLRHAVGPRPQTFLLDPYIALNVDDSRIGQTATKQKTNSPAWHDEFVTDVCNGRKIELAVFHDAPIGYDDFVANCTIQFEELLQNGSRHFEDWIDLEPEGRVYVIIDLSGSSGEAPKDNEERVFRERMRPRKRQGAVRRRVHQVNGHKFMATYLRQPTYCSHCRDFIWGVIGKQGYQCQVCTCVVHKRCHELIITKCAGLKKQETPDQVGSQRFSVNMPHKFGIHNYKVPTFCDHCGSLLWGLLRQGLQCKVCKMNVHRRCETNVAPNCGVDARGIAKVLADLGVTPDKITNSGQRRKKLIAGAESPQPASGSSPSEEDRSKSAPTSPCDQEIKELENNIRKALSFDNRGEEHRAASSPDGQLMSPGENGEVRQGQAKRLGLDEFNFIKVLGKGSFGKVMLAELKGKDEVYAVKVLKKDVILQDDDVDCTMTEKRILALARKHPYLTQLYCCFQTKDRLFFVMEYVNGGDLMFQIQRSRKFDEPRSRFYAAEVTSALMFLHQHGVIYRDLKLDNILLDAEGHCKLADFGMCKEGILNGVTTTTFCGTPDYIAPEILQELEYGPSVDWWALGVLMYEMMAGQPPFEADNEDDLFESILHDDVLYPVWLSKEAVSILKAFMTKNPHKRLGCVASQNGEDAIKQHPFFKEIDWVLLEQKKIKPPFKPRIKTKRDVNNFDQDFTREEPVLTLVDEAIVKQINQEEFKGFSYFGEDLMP

Molecule `COc1cc(N(C)c2ccnc3ccc(C(F)(F)F)cc23)cc(OC)c1OC` has a % binding [1] of 100% and a % binding [2] of 91%.
Work on `Nc1cnc(N2CCc3cc(S(=O)(=O)Nc4c(F)cc(Cl)cc4F)cc(N4CCCC4=O)c32)nc1` [TP-020n] yielded a % of control [3] of 100%.
For `CCC(=O)N1CC[C@H](Nc2ncnc3c2CN(c2cnc(OC)c(C(F)(F)F)c2)CC3)C1` [LENIOLISIB], the IC50 [4] was > 9.1 µM.
In the case of `CCc1cc(Nc2nccc(-c3c(-c4ccc(OC)c(C(=O)Nc5c(F)cccc5F)c4)nc4ccccn34)n2)c(OC)cc1N1CCC(N2CCN(S(C)(=O)=O)CC2)CC1`, the IC50 (Aurora kinase A) is reported as > 1.5 µM.
With `Cn1cc(-n2cnc3c(NCc4nc5cc(Cl)c(Cl)cc5[nH]4)nc(N4CCOCC4)nc32)cn1` the % of inhibition [5] was -15.6% and the % of control [6] was 2.87%.
With `CC[C@@H]1[C@H](F)C(=O)N[C@@H]1COc1nccc2cc(C(N)=O)c(OC)cc12` [ZIMLOVISERTIB] the % of inhibition ([7]; at 0.01 µM) was 1.5%, the % of inhibition ([7]; at 0.04 µM) was -2.5% and the % of inhibition ([7]; at 0.2 µM) was 7.8%. For the same molecule, the % of inhibition ([7]; at 1 µM) was 6.7% and the % of inhibition ([7]; at 5 µM) was -16.4%.
`O[C@H]1CC[C@H](Nc2ncc3nc(Nc4c(F)cc(F)cc4F)n([C@H]4CCOC4)c3n2)CC1` was tested, and the % of control [8] was 98%.
